Measurements as given in publication PMC8896928, “Preparation, Characterization, and Preliminary Imaging Study of [^188Re]Re-Ibandronate as a Novel Theranostic Radiopharmaceutical for Bone Metastasis” (Contrast Media & Molecular Imaging, 2022).
Where two headings read alike, the source gives them in different places.

Experiments:
[1] = Biodistribution in normal mice; format: in vivo, Kunming mice
Description: Twenty Kunming mice (originated from Swiss albino mice and introduced into Kunming, China.) were randomly divided into five groups (equal number of males and females). Each group was injected with 3.7 MBq [^188Re]Re-IBA. […] The blood and important tissue and organ samples were collected to measure the radioactivity count by γ counter. Following the time attenuation correction, the percentage injection dose rate per gram of tissue (%ID/g) was calculated at each time point. The result is expressed as mean ± standard deviation ( χ¯ ± s). The in vivo distribution of [^188Re]ReO4^− was studied using the aforementioned method.

patients = conditions: cited from earlier work; for Nephrotoxicity: patients, renal safety
[2] = 0.9% NaCl, 24 h; cited from earlier work
[3] = Swiss mice, cited from earlier work
[4] = Kunming mice, 24 h, cited from earlier work
[5] = patients with bone tumors, P < 0.05

Compound: [O]=[188Re](=[O])(=[O])[O-] [[^188Re]ReO4^−, reference compound]
- %ID/g Blood ([1]; 1 h): 4.648 ± 1.631 %ID/g
- %ID/g Brain ([1]; 1 h): 0.207 ± 0.044 %ID/g
- %ID/g Femur ([1]; 1 h): 1.670 ± 0.345 %ID/g
- %ID/g Gonad ([1]; 1 h): 1.096 ± 0.007 %ID/g
- %ID/g Heart ([1]; 1 h): 1.422 ± 0.339 %ID/g
- %ID/g Kidney ([1]; 1 h): 2.923 ± 0.658 %ID/g
- %ID/g Liver ([1]; 1 h): 2.480 ± 0.556 %ID/g
- %ID/g Lung ([1]; 1 h): 4.458 ± 1.379 %ID/g
- %ID/g Muscle ([1]; 1 h): 0.775 ± 0.074 %ID/g
- %ID/g Small intestine ([1]; 1 h): 1.671 ± 0.448 %ID/g
- %ID/g Spleen ([1]; 1 h): 2.341 ± 0.973 %ID/g
- %ID/g Stomach ([1]; 1 h): 22.747 ± 5.67 %ID/g
- %ID/g Thyroid gland ([1]; 1 h): 20.247 ± 2.489 %ID/g
- Femur/heart radioactivity ratio ([1]; 1 h): 1.195
- Femur/liver radioactivity ratio ([1]; 1 h): 0.685
- Femur/muscle radioactivity ratio ([1]; 1 h): 2.193
- %ID/g Blood ([1]; 3 h): 1.578 ± 0.419 %ID/g
- %ID/g Brain ([1]; 3 h): 0.070 ± 0.024 %ID/g
- %ID/g Femur ([1]; 3 h): 0.431 ± 0.038 %ID/g
- %ID/g Gonad ([1]; 3 h): 0.404 ± 0.130 %ID/g
- %ID/g Heart ([1]; 3 h): 0.401 ± 0.050 %ID/g
- %ID/g Kidney ([1]; 3 h): 0.683 ± 0.118 %ID/g
- %ID/g Liver ([1]; 3 h): 0.530 ± 0.038 %ID/g
- %ID/g Lung ([1]; 3 h): 1.026 ± 0.312 %ID/g
- %ID/g Muscle ([1]; 3 h): 0.182 ± 0.023 %ID/g
- %ID/g Small intestine ([1]; 3 h): 0.558 ± 0.207 %ID/g
- %ID/g Spleen ([1]; 3 h): 0.490 ± 0.090 %ID/g
- %ID/g Stomach ([1]; 3 h): 8.578 ± 3.928 %ID/g
- %ID/g Thyroid gland ([1]; 3 h): 10.167 ± 1.618 %ID/g
- Femur/heart radioactivity ratio ([1]; 3 h): 1.075
- Femur/liver radioactivity ratio ([1]; 3 h): 0.813
- Femur/muscle radioactivity ratio ([1]; 3 h): 2.372
- %ID/g Blood ([1]; 6 h): 0.533 ± 0.254 %ID/g
- %ID/g Brain ([1]; 6 h): 0.044 ± 0.019 %ID/g
- %ID/g Femur ([1]; 6 h): 0.213 ± 0.102 %ID/g
- %ID/g Gonad ([1]; 6 h): 0.207 ± 0.065 %ID/g
- %ID/g Heart ([1]; 6 h): 0.176 ± 0.074 %ID/g
- %ID/g Kidney ([1]; 6 h): 0.338 ± 0.191 %ID/g
- %ID/g Liver ([1]; 6 h): 0.258 ± 0.086 %ID/g
- %ID/g Lung ([1]; 6 h): 0.487 ± 0.132 %ID/g
- %ID/g Muscle ([1]; 6 h): 0.109 ± 0.065 %ID/g
- %ID/g Small intestine ([1]; 6 h): 0.263 ± 0.050 %ID/g
- %ID/g Spleen ([1]; 6 h): 0.270 ± 0.098 %ID/g
- %ID/g Stomach ([1]; 6 h): 2.828 ± 1.287 %ID/g
- %ID/g Thyroid gland ([1]; 6 h): 4.299 ± 1.015 %ID/g
- Femur/heart radioactivity ratio ([1]; 6 h): 1.205
- Femur/liver radioactivity ratio ([1]; 6 h): 0.823
- Femur/muscle radioactivity ratio ([1]; 6 h): 1.950
- %ID/g Blood ([1]; 24 h): 0.023 ± 0.009 %ID/g
- %ID/g Brain ([1]; 24 h): 0.017 ± 0.004 %ID/g
- %ID/g Femur ([1]; 24 h): 0.031 ± 0.003 %ID/g
- %ID/g Gonad ([1]; 24 h): 0.021 ± 0.009 %ID/g
- %ID/g Heart ([1]; 24 h): 0.017 ± 0.005 %ID/g
- %ID/g Kidney ([1]; 24 h): 0.017 ± 0.003 %ID/g
- %ID/g Liver ([1]; 24 h): 0.023 ± 0.010 %ID/g
- %ID/g Lung ([1]; 24 h): 0.054 ± 0.017 %ID/g
- %ID/g Muscle ([1]; 24 h): 0.021 ± 0.008 %ID/g
- %ID/g Small intestine ([1]; 24 h): 0.023 ± 0.004 %ID/g
- %ID/g Spleen ([1]; 24 h): 0.028 ± 0.007 %ID/g
- %ID/g Stomach ([1]; 24 h): 0.053 ± 0.032 %ID/g
- %ID/g Thyroid gland ([1]; 24 h): 0.051 ± 0.026 %ID/g
- Femur/heart radioactivity ratio ([1]; 24 h): 1.853
- Femur/liver radioactivity ratio ([1]; 24 h): 1.325
- Femur/muscle radioactivity ratio ([1]; 24 h): 1.498
- %ID/g Blood ([1]; 48 h): 0.007 ± 0.002 %ID/g
- %ID/g Brain ([1]; 48 h): 0.013 ± 0.006 %ID/g
- %ID/g Femur ([1]; 48 h): 0.011 ± 0.005 %ID/g
- %ID/g Gonad ([1]; 48 h): 0.007 ± 0.001 %ID/g
- %ID/g Heart ([1]; 48 h): 0.011 ± 0.004 %ID/g
- %ID/g Kidney ([1]; 48 h): 0.017 ± 0.007 %ID/g
- %ID/g Liver ([1]; 48 h): 0.018 ± 0.010 %ID/g
- %ID/g Lung ([1]; 48 h): 0.036 ± 0.008 %ID/g
- %ID/g Muscle ([1]; 48 h): 0.020 ± 0.005 %ID/g
- %ID/g Small intestine ([1]; 48 h): 0.014 ± 0.005 %ID/g
- %ID/g Spleen ([1]; 48 h): 0.022 ± 0.006 %ID/g
- %ID/g Stomach ([1]; 48 h): 0.029 ± 0.012 %ID/g
- %ID/g Thyroid gland ([1]; 48 h): 0.025 ± 0.009 %ID/g
- Femur/heart radioactivity ratio ([1]; 48 h): 1.060
- Femur/liver radioactivity ratio ([1]; 48 h): 0.638
- Femur/muscle radioactivity ratio ([1]; 48 h): 0.585

Compound: CCCCCN(C)CCC(O)(P(=O)(O)O)P(=O)(O)O [ibandronic acid, Ibandronic acid]
- Renal function during follow-up (patients; 44 patients, average follow-up of 18.5 months): no impairment of renal function
- Pain relief rate and improvement in the quality of life vs zoledronic acid group (patients; [5]): higher
- Rate of adverse reactions vs zoledronic acid group (patients; [5]): lower
- Nephrotoxicity (patients): extremely low and equivalent to that of the placebo

Compound: O=P(O)(O)C(O)(Cn1ccnc1)P(=O)(O)O [zoledronic acid]
- Nephrotoxicity (patients): possible occurrence of nephrotoxicity

Compound: [^188Re]Re-bisphosphonate hydroxyethylidene diphosphonate [[^188Re]Re-HEDP]
- Stability (RCP) [2]: 91.2%
- Bone uptake (maximum) ([3]; 4 h): 1.0 ± 0.1 %ID/g
- Bone uptake ([4]; ref 37): 22.36 ± 4.11 %ID/g
- Bone uptake ([4]; ref 38): 11.08 ± 4.25 %ID/g

Compound: [^188Re]Re-pamidronate [[^188Re]Re-PMA]
- Bone uptake (lowest) ([3]; 1 h): 0.40 ± 0.05 %ID/g
- Bone uptake (highest) ([3]; 4 h): 0.81 ± 0.25 %ID/g
